Reference: ChEMBL document CHEMBL1201862, “PubChem BioAssay data set” (2004)
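Exposure lasted 48 hours, with cells grown in 96-well plates and compounds tested at five concentrations. Abbreviation: GI50, concentration required for 50% inhibition of growth.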 Calls of active or inactive are those of the source. Rule as the data show it: active = GI50 up to about 1.1 µM and inactive = higher.

Columns and labels:
Experiment in all cases: NCI-60 cell line screen, 48 h
[1] = tested on: 786-0
[2] = tested on: A498
[3] = tested on: A549
[4] = tested on: ACHN
[5] = tested on: CAKI-1
[6] = tested on: CCRF-CEM
[7] = tested on: COLO 205
[8] = tested on: DLD-1
[9] = tested on: DMS-114
[10] = tested on: DMS-273
[11] = tested on: EKVX
[12] = tested on: HCC 2998
[13] = tested on: HCT-116
[14] = tested on: HCT-15
[15] = tested on: HL-60
[16] = tested on: HOP-62
[17] = tested on: HOP-92
[18] = tested on: HT-29
[19] = tested on: IGROV-1
[20] = tested on: K562
[21] = tested on: KM12
[22] = tested on: LOX IMVI
[23] = tested on: LXFL 529
[24] = tested on: M14
[25] = tested on: M19-MEL
[26] = tested on: MOLT-4
[27] = tested on: Malme-3M
[28] = tested on: NCI-H23
[29] = tested on: NCI-H460
[30] = tested on: NCI-H522
[31] = tested on: OVCAR-3
[32] = tested on: OVCAR-4
[33] = tested on: OVCAR-5
[34] = tested on: OVCAR-8
[35] = tested on: RPMI-8226
[36] = tested on: RXF 393
[37] = tested on: RXF 631
[38] = tested on: SF-268
[39] = tested on: SF-295
[40] = tested on: SF-539
[41] = tested on: SK-MEL-28
[42] = tested on: SK-MEL-2
[43] = tested on: SK-MEL-5
[44] = tested on: SK-OV-3
[45] = tested on: SN12C
[46] = tested on: SNB-19
[47] = tested on: SNB-75
[48] = tested on: SNB-78
[49] = tested on: SW-620
[50] = tested on: TK-10
[51] = tested on: U-251
[52] = tested on: UACC-257
[53] = tested on: UACC-62
[54] = tested on: UO-31
[55] = tested on: XF498

## OC1CC1Sc1ccccc1 (stereo not given)
[1]
  GI50: 21 µM (inactive)
[2]
  GI50: 71.8 µM (inactive)
[3]
  GI50: 34.6 µM (inactive)
[4]
  GI50: 43.5 µM (inactive)
[5]
  GI50: 73.3 µM (inactive)
[6]
  GI50: 15.1 µM (inactive)
[7]
  GI50: 40.7 µM (inactive)
[8]
  GI50: 29.8 µM (inactive)
[9]
  GI50: 24.7 µM (inactive)
[10]
  GI50: 33 µM (inactive)
[11]
  GI50: 70.1 µM (inactive)
[12]
  GI50: 35 µM (inactive)
[13]
  GI50: 22.5 µM (inactive)
[14]
  GI50: 36.7 µM
[15]
  GI50: 14.2 µM (inactive)
[16]
  GI50: 43 µM (inactive)
[17]
  GI50: 29.6 µM (inactive)
[18]
  GI50: 27.2 µM (inactive)
[19]
  GI50: 23.7 µM (inactive)
[20]
  GI50: 33.9 µM (inactive)
[21]
  GI50: 34 µM (inactive)
[22]
  GI50: 28 µM (inactive)
[23]
  GI50: 22.8 µM (inactive)
[24]
  GI50: 36.6 µM (inactive)
[25]
  GI50: 32.9 µM (inactive)
[26]
  GI50: 21.1 µM (inactive)
[27]
  GI50: 95.1 µM (inactive)
[28]
  GI50: 35.6 µM (inactive)
[29]
  GI50: 65.2 µM (inactive)
[30]
  GI50: 17.6 µM (inactive)
[31]
  GI50: 25.4 µM (inactive)
[32]
  GI50: 30.5 µM (inactive)
[33]
  GI50: 95.3 µM (inactive)
[34]
  GI50: 28.4 µM (inactive)
[35]
  GI50: 30.5 µM (inactive)
[36]
  GI50: 25.2 µM (inactive)
[37]
  GI50: 39.9 µM (inactive)
[38]
  GI50: 18.6 µM (inactive)
[39]
  GI50: 24.5 µM (inactive)
[40]
  GI50: 22 µM (inactive)
[41]
  GI50: 22.1 µM (inactive)
[42]
  GI50: 38.1 µM (inactive)
[43]
  GI50: 31.6 µM (inactive)
[44]
  GI50: 80.4 µM (inactive)
[45]
  GI50: 24 µM (inactive)
[46]
  GI50: 33.9 µM (inactive)
[47]
  GI50: 26.7 µM (inactive)
[48]
  GI50: 26.9 µM (inactive)
[49]
  GI50: 25.8 µM (inactive)
[50]
  GI50: 59.7 µM (inactive)
[51]
  GI50: 31.6 µM (inactive)
[52]
  GI50: 52.5 µM (inactive)
[53]
  GI50: 33.3 µM (inactive)
[54]
  GI50: 10.1 µM (inactive)
[55]
  GI50: 79.8 µM (inactive)
